One series deals with Shh pathway. As to the kind of experiment: Gli-luciferase reporter assay for Shh signaling in transiently transfected NIH-3T3 cells. As to conditions: ShhNp-treated NIH-3T3 cells (FIG. 2C: ShhNp 4 nM, cyclopamine 5 μM, 2 d). Format: cell-based, mouse. (A reporter such as luciferase makes a cellular process visible.)
Series [1] has as its system Shh pathway activity in Ptc1−/− cells. The source says:
Since β-galactosidase is expressed from the Ptc1 locus, its expression reflects the activity of the Shh pathway. A representative experiment is shown. […] Cultures of NIH-3T3 cells were transfected (in triplicate) with Gli-luciferase reporter, TK-Renilla luciferase control vector and Smo or SmoA1 expression vectors. Smo DNA was used at 50% w/w, and SmoA1 at 50%, 5%, and 0.5% w/w. […] Error bars indicate one standard deviation. The leftmost four bars, shown for comparison, are as in FIG. 2C. […] NIH-3T3 cells were transfected with Gli-luc reporter, TK-Renilla, Ptc1CTD and SmoA1 expression vectors (Ptc to Smo DNA ratio=9). […] A representative experiment is shown. […] NIH-3T3 cells were cotransfected with Gli-luc reporter, β-galactosidase transfection control, and a control vector or an expression vector encoding the indicated Smo-Renilla luciferase fusion protein. In the representative experiment shown, Shh pathway activity and Smo protein levels were measured as firefly and Renilla luciferase activities relative to β-galactosidase, respectively.
(§1) Relative reporter activity is normalized to maximum. […] Error bars in A and B indicate one standard deviation.
Mice lacking function of Ptc1 display widespread activation of targets of Shh signaling, including of the Ptc1 gene itself (L. V. Goodrich, L. Milenkovic, K. M. Higgins, M. P. Scott, Science 277, 1109 (1997)). As β-galactosidase is expressed under the control of the Ptc1 promoter in these cells, β-galactosidase expression can be used to assay the state of Shh pathway activity (FIG. 3A).

Another series relates to p2PTC−/− cells. As to conditions: even at the highest doses used, 2 d.
Description: as §1

The test system of series [2] is P2A6 fibrosarcoma cells derived from Ptc−/− embryonic fibroblasts. The series can be described thus: Subcutaneous P2A6 fibrosarcoma tumors in female nude mice. As to conditions: for differentiation status of tumors: compared with the tomatidine-treated control, FIG. 7; for Ki-67 proliferation rate: tumors after four days of treatment, blinded pathologist. Format: in vivo, mouse. The protocol: Female nude mice were injected subcutaneously with 5 million P2A6 fibrosarcoma cells derived from Ptc−/− embryonic fibroblasts. Three weeks after injection, each mouse had developed a discrete subcutaneous tumor. Each tumor was measured and treatments were initiated on the same day. […] The mice were killed, and tumors were measured and dissected out for histopathologic analysis. Tumor volumes were calculated as the product of length x width. The samples were paraformaldehyde-fixed and paraffin-embedded, and slides were cut for hematoxylin and eosin staining and for immunohistochemistry with polyclonal antibodies against the proliferation marker Ki-67 (Novacastra NCL-Ki67p; assay performed according to manufacturer's directions).

The subject of another series is Hedgehog signaling. As to the kind of experiment: Hedgehog signaling assay in Drosophila c1-8 cells. Format: cell-based. As to conditions: not shown. The text has this: Cellular responses to the Hh signal are controlled by two multi-pass transmembrane proteins, Smo and Ptc1, predicted to have seven and twelve transmembrane spans, respectively. Smo is related to the Frizzled family of Wnt receptors and more distantly to the secretin family of G protein-coupled receptors (M. R. Barnes, D. M. Duckworth, L. J. Beeley, Trends Pharmacol Sci 19, 399 (1998)).

The subject of the next series is NIH-3T3 cells. As to conditions: data not shown.
The next series concerns Sonic hedgehog signaling. The series can be described thus: Clonal NIH-3T3 line with stably integrated Shh-responsive luciferase reporter (Shh-LIGHT/Shh-LIGHT2), inhibition of Sonic hedgehog induction. It counts as cell-based, mouse.
Description: FIG. 2 relates to a sensitive assay for Shh signaling in NIH-3T3 cells. (A) Purification of cholesterol- and palmitate-modified mouse Sonic hedgehog signaling domain ShhNp. Detergent-insoluble proteolipid complexes were isolated from 293 cells expressing full-length Shh (M. K. Cooper, J. A. Porter, K. E. Young, P. A. Beachy, Science 280, 1603 (1998)), and ShhNp was purified to apparent homogeneity by immunoaffinity chromatography. […] We therefore used the detergent insolubility of cholesterol-modified ShhN and affinity chromatography to purify the processed ShhN protein (ShhNp) from a human 293 cell line engineered to express the full length mouse Shh construct. Detergent-insoluble complexes (DIGs) were isolated as described by Brown and Rose (1992), with the following modifications. Cells from a 150 mm dish were lysed and collected in 2 mL of lysis solution (10 mM NaHPO4, pH 6.5, 150 mM NaCl, 0.5 mM PMSF, 1% Triton X-100, 2 μg/ml Pepstatin A, 10 μg/ml leupeptin, 5 μg/ml aprotinin, 2 μg/ml E64) at 4° C. […] Low-density, flocculent material was collected (from original position of 18.125% step), diluted 5-fold in 10 mM NaHPO4, pH 6.5, 150 mM NaCl and harvested by centrifugation at 20,000×g for 15 min (all at 4° C.). […] Mass standards migrated as indicated. […] NIH-3T3 cells cotransfected with Gli-luc reporter and TK promoter-driven Renilla luciferase control were treated with the indicated concentrations of ShhNp for 2 days. Confluent cultures of NIH-3T3 cells were plated at 1:6 dilution to 24 or 96-well plates. On the following day, the cells were transfected with renilla luciferase (pRL-TK or pRL-SV40; Clontech) or β-galactosidase transfection control (10% w/w DNA), Gli-Luc reporter (40%) and the constructs indicated (50%) using Fugene 6 (Roche) transfection reagent (250 ng (24 well plate) or 100 ng (96 well plate) DNA/well, 3:1 ratio (v/w) of reagent to DNA). […] Firefly and Renilla luciferase and β-galactosidase activities were assayed from the cell lysates by luminometry using dual luciferase (Promega) and Galacto-Light (Tropix) kits, respectively. Luciferase activities are normalized relative to control; a representative experiment is shown. […] Error bars indicate one standard deviation. […] Cultures of Shh-LIGHT (open boxes) or SmoA1-LIGHT (filled diamonds) cells were plated to 96-well plates in a series of twofold dilutions. The NIH-3T3 cell clone Shh-LIGHT and Shh-LIGHT2 stably incorporating the Gli-luc reporter and TK-renilla vectors were established by cotransfection with a vector encoding G418 resistance (pSV-Neo), followed by selection with G418 and cell cloning. Subsequently, a clonal subline of Shh-LIGHT expressing activated Smo (SmoA1-LIGHT) was established using an expression vector that allows hygromycin selection (pcDNA3.1+ hygro; Invitrogen). […] The Shh-LIGHT cells were treated with 4 nM ShhNp, and Gli-luciferase reporter activity was assayed after 24 h. Fold induction of the reporter (% of maximum is relative to equally dense Shh-LIGHT control culture) and cell densities (% of maximum Renilla luciferase activity) were measured at the end of the experiment. Error bars indicate one standard deviation (quadruplicate wells).
as §1

Another series relates to activated Smo (SmoA1). The series can be described thus: Gli-luciferase reporter activity in cells expressing activated Smo (SmoA1-LIGHT). Format: cell-based, mouse. The source says: FIG. 2 relates to a sensitive assay for Shh signaling in NIH-3T3 cells. (A) Purification of cholesterol- and palmitate-modified mouse Sonic hedgehog signaling domain ShhNp. Detergent-insoluble proteolipid complexes were isolated from 293 cells expressing full-length Shh (M. K. Cooper, J. A. Porter, K. E. Young, P. A. Beachy, Science 280, 1603 (1998)), and ShhNp was purified to apparent homogeneity by immunoaffinity chromatography. […] We therefore used the detergent insolubility of cholesterol-modified ShhN and affinity chromatography to purify the processed ShhN protein (ShhNp) from a human 293 cell line engineered to express the full length mouse Shh construct. Detergent-insoluble complexes (DIGs) were isolated as described by Brown and Rose (1992), with the following modifications. Cells from a 150 mm dish were lysed and collected in 2 mL of lysis solution (10 mM NaHPO4, pH 6.5, 150 mM NaCl, 0.5 mM PMSF, 1% Triton X-100, 2 μg/ml Pepstatin A, 10 μg/ml leupeptin, 5 μg/ml aprotinin, 2 μg/ml E64) at 4° C. […] Fold induction of the reporter (% of maximum is relative to equally dense Shh-LIGHT control culture) and cell densities (% of maximum Renilla luciferase activity) were measured at the end of the experiment. […]

Setting [3] is: nude mice, once daily intraperitoneal, four days, one mouse per treatment.

pIC50: −log10 of the molar value.

Regarding forskolin, in the series with Shh pathway, the “induction of reporter by ShhNp” value is on record as “prevented induction”.

For the molecule `CC1=C2C[C@H]3[C@@H](CC=C4C[C@@H](O)CC[C@@]43C)[C@@H]2CC[C@]12O[C@@H]1C[C@H](C)CN[C@H]1[C@H]2C` [Compound 1, cyclopamine], the β-galactosidase expression result in series [1] is “significantly suppressed”. The “Significant toxicity (microscopically visible cell death, or decrease in Cell Titer reading)” value in the series on p2PTC−/− cells is on record as “not observed”. In series [2], the “differentiation status of tumors” value is recorded as “greater degree of differentiation” and the Ki-67 proliferation rate came to 16%. Moreover, the “decrease of tumor size” value in series [2] (setting [3]) is 0.14%. The “sensitivity of Hedgehog signaling assay to the substance” value in the series on Hedgehog signaling was “resistant”. Besides, the “concentration range in which toxic effects emerge” value in the series with NIH-3T3 cells was in the range of 10 to 40 µM.

Regarding `C[C@H]1CC[C@]2(NC1)O[C@H]1C[C@H]3[C@@H]4CC[C@H]5C[C@@H](O)CC[C@]5(C)[C@H]4CC[C@]3(C)[C@H]1[C@@H]2C` [tomatidine], the “tumor growth over the treatment period” value in series [2] (setting [3]) is given as 17%. The molecule further yielded a Ki-67 proliferation rate in series [2] of 30%.

As to “3-keto, N-aminoethyl aminocaproyl dihydrocinnamoyl cyclopamine [KAAD cyclopamine]”, in the series on Sonic hedgehog signaling, the “potency in suppression of ShhNp-induced pathway activity relative to cyclopamine” value is reported as 10-20 fold. In addition, in the series with activated Smo (SmoA1), the “blocking of pathway activation by tumor-derived / constitutively activated Smo” value is recorded as “can block”. The “concentration suppressing SmoA1-induced reporter activity relative to that required for suppression of ShhNp signaling” value with activated Smo (SmoA1) (higher, FIG. 4A) is listed as “approximately 10 fold”. In addition, the “blocking/suppression of pathway activity in cells lacking Ptc1 function” value in series [1] is reported as “can block”. Moreover, the “potency relative to cyclopamine in p2PTC−/− cells” value in series [1] (FIG. 4B, 2 d) is “higher potency”. The “minimum normalized β-galactosidase activity” value in series [1] (p2PTC−/− cells, 2 d, normalized to cell mass, set to 0) is on record as 191. Moreover, the “Maximum normalized β-galactosidase activity” value in series [1] (p2PTC−/− cells, 2 d, normalized to cell mass, set to 1) came to 1103. The “Significant toxicity (microscopically visible cell death, or decrease in Cell Titer reading)” value with p2PTC−/− cells is “not observed”. In series [2], the “differentiation status of tumors” value is “greater degree of differentiation” and the Ki-67 proliferation rate was determined as 12%. For the same molecule, in series [2] (setting [3]), the “decrease of tumor size” value was 19%.

In the case of `CC(=O)CCC(=O)N[C@@H](Cc1ccc(C(=O)c2ccccc2)cc1)C(=O)NCCN1C[C@@H](C)C[C@H]2O[C@]3(CC[C@@H]4C(=C3C)CC3[C@H]4CC=C4C[C@@H](O)CC[C@@]43C)C(C)[C@@H]21` (some centres unmarked) [Compound 50, N—(N′—(N″-Levulinoyl(4-benzoylphenylalaminoyl))aminoethyl)cyclopamine], in the series on Sonic hedgehog signaling (Mus musculus, NIH3T3, concentration for 50% inhibition of Sonic hedgehog induction, Table II), the pIC50 (as a rule, the negative decadic logarithm of the IC50, by convention in mol/L) was < 6.00. The “effect of N-alkyl modification on ability to block Shh signaling” value with Sonic hedgehog signaling (SAR statement, relative to cyclopamine) is listed as “significantly abrogate biological activity”.

For the origin of these results see patent US9440988B2, “Regulators of the hedgehog pathway, compositions and uses related thereto” (John Hopkins University School of Medicine, priority 1008, dated 2016).
